Target: T1, COX-1 (Ovis aries, UniProt P05979)
T1 sequence (P05979 25-600): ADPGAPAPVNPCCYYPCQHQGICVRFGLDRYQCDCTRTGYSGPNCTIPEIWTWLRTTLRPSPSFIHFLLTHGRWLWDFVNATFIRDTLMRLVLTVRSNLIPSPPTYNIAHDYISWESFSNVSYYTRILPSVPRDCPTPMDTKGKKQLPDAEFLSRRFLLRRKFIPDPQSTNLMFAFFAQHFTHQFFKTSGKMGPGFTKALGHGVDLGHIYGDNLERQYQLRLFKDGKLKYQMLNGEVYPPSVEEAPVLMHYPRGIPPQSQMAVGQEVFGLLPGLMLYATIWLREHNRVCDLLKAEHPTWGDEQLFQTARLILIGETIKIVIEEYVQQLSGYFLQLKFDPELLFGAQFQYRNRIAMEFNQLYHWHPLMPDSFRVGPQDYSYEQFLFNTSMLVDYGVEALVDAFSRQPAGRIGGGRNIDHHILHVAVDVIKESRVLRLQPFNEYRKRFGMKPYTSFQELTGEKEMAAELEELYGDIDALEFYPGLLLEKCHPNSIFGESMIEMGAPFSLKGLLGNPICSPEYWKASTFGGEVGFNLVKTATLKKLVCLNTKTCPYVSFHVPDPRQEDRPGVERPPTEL
Test: inhibition of COX-1-catalyzed oxidation of arachidonic acid
Assay type: biochemical
Settings: at concentrations up to 1 mM

COX-1 inhibition (in words): not able to significantly inhibit COX-1
Structure (SMILES): Cc1nc2c(c(C)c1O)CNC(=O)N2 [compound 13]

Reference: paper PMC3904457 (ACS medicinal chemistry letters, 2013)
